# From the SangsterLogP compilation
row,Compound,logP
1,CCN1C(=O)NC(Cc2ccccc2)C1=O (configuration not stated),1.61
2,CN1C(=O)NC(c2ccccc2)(c2ccccc2)C1=O,2.28
3,CN1CC(=O)N(c2ccccc2)C1=O,0.14
4,O=C1NC(Cc2ccccc2)C(=O)N1Cc1ccccc1 (configuration not stated),2.84
5,CCC1(c2ccccc2)NC(=O)N(C)C1=O (configuration not stated),1.69
6,O=C1CNC(=O)N1Cc1ccccc1,0.82
7,O=C1NC(=O)C(Cc2ccccc2)(Cc2ccccc2)N1,2.46
8,O=C1NC(Cc2ccccc2)C(=O)N1c1ccccc1 (configuration not stated),2.27

# Other lines, results leading:
row,logP,Compound
1,-1.53,O=C1CNC(=O)N1
2,-0.95,CC1NC(=O)NC1=O (configuration not stated)
3,-0.36,CC(C)C1NC(=O)NC1=O (configuration not stated)
4,0.35,CC(C)CC1NC(=O)NC1=O (configuration not stated)
